ChEMBL document CHEMBL1152860, “Synthesis and antiproliferative activity of 3-amino-N-phenyl-1H-indazole-1-carboxamides” (2009)

Experiments:
Assay type in all cases: functional
[1] = tested on: ACHN; experiment: Growth inhibition of human ACHN cells after 48 hrs by SRB assay
[2] = tested on: IGROV-1; experiment: Growth inhibition of human IGROV1 cells after 48 hrs by SRB assay; conditions: IGROV-1, 48 h
[3] = tested on: RPMI-8226; experiment: Growth inhibition of human RPMI8226 cells after 48 hrs by SRB assay; conditions: RPMI-8226, 48 h
[4] = tested on: SF-295; experiment: Growth inhibition of human SF295 cells after 48 hrs by SRB assay; conditions: SF-295, 48 h
[5] = tested on: T47D; experiment: Growth inhibition of human T47D cells after 48 hrs by SRB assay
[6] = tested on: UACC-62; experiment: Growth inhibition of human UACC62 cells after 48 hrs by SRB assay; conditions: UACC-62, 48 h
[7] = tested on: HCT-116; experiment: Growth inhibition of human HCT116 cells after 48 hrs by SRB assay; conditions: HCT-116, 48 h
[8] = tested on: U-251; experiment: Growth inhibition of human U251 cells after 48 hrs by SRB assay; conditions: U-251, 48 h
[9] = tested on: TK-10; experiment: Growth inhibition of human TK10 cells after 48 hrs by SRB assay; conditions: TK-10, 48 h
[10] = tested on: A498; experiment: Growth inhibition of human A498 cells after 48 hrs by SRB assay; conditions: A498, 48 h
[11] = tested on: HOP-62; experiment: Growth inhibition of human HOP62 cells after 48 hrs by SRB assay; conditions: HOP-62, 48 h
[12] = tested on: SF-268; experiment: Growth inhibition of human SF268 cells after 48 hrs by SRB assay; conditions: SF-268, 48 h
[13] = tested on: OVCAR-8; experiment: Growth inhibition of human OVCAR8 cells after 48 hrs by SRB assay; conditions: OVCAR-8, 48 h
[14] = tested on: UACC-257; experiment: Growth inhibition of human UACC257 cells after 48 hrs by SRB assay; conditions: UACC-257, 48 h
[15] = tested on: HL-60(TB); experiment: Growth inhibition of human HL-60(TB) cells after 48 hrs by SRB assay; conditions: HL-60, 48 h
[16] = tested on: SR; experiment: Growth inhibition of human SR cells after 48 hrs by SRB assay
[17] = tested on: KM12; experiment: Growth inhibition of human KM12 cells after 48 hrs by SRB assay; conditions: KM12, 48 h
[18] = tested on: NCI-H226; experiment: Growth inhibition of human NCI-H226 cells after 48 hrs by SRB assay; conditions: NCI-H226, 48 h
[19] = tested on: UO-31; experiment: Growth inhibition of human UO31 cells after 48 hrs by SRB assay; conditions: UO-31, 48 h
[20] = tested on: LOX IMVI; experiment: Growth inhibition of human LOXIMVI cells after 48 hrs by SRB assay
[21] = tested on: NCI-H460; experiment: Growth inhibition of human NCI-H460 cells after 48 hrs by SRB assay; conditions: NCI-H460, 48 h
[22] = tested on: K562; experiment: Growth inhibition of human K562 cells after 48 hrs by SRB assay; conditions: K562, 48 h
[23] = tested on: SK-MEL-28; experiment: Growth inhibition of human SK-MEL-28 cells after 48 hrs by SRB assay; conditions: SK-MEL-28, 48 h
[24] = tested on: NCI-H322M; experiment: Growth inhibition of human NCI-H322M cells after 48 hrs by SRB assay
[25] = tested on: OVCAR-5; experiment: Growth inhibition of human OVCAR5 cells after 48 hrs by SRB assay; conditions: OVCAR-5, 48 h
[26] = tested on: NCI-H23; experiment: Growth inhibition of human NCI-H23 cells after 48 hrs by SRB assay; conditions: NCI-H23, 48 h
[27] = tested on: OVCAR-4; experiment: Growth inhibition of human OVCAR4 cells after 48 hrs by SRB assay; conditions: OVCAR-4, 48 h
[28] = tested on: HT-29; experiment: Growth inhibition of human HT-29 cells after 48 hrs by SRB assay; conditions: HT-29, 48 h
[29] = tested on: MCF7; experiment: Growth inhibition of human MCF7 cells after 48 hrs by SRB assay; conditions: MCF7, 48 h
[30] = tested on: 786-0; experiment: Growth inhibition of human 786-0 cells after 48 hrs by SRB assay; conditions: 786-0, 48 h
[31] = tested on: MDA-MB-435; experiment: Growth inhibition of human MDA-MB-435 cells after 48 hrs by SRB assay; conditions: MDA-MB-435, 48 h
[32] = tested on: HOP-92; experiment: Growth inhibition of human HOP92 cells after 48 hrs by SRB assay; conditions: HOP-92, 48 h
[33] = tested on: SN12C; experiment: Growth inhibition of human SN12C cells after 48 hrs by SRB assay
[34] = tested on: PC-3; experiment: Growth inhibition of human PC3 cells after 48 hrs by SRB assay; conditions: PC-3, 48 h
[35] = tested on: NCI/ADR-RES; experiment: Growth inhibition of human NCI/ADR-RES cells after 48 hrs by SRB assay
[36] = tested on: RXF 393; experiment: Growth inhibition of human […] cells after 48 hrs by SRB assay; conditions: RXF 393, 48 h
[37] = tested on: SNB-75; experiment: Growth inhibition of human SNB75 cells after 48 hrs by SRB assay; conditions: SNB-75, 48 h
[38] = tested on: COLO 205; experiment: Growth inhibition of human COLO205 cells after 48 hrs by SRB assay; conditions: COLO 205, 48 h
[39] = tested on: SK-MEL-5; experiment: Growth inhibition of human SK-MEL-5 cells after 48 hrs by SRB assay; conditions: SK-MEL-5, 48 h
[40] = tested on: A549; experiment: Growth inhibition of human A549 cells after 48 hrs by SRB assay; conditions: A549, 48 h
[41] = tested on: HCC 2998; experiment: Growth inhibition of human HCC2998 cells after 48 hrs by SRB assay; conditions: HCC 2998, 48 h
[42] = tested on: OVCAR-3; experiment: Growth inhibition of human OVCAR-3 cells after 48 hrs by SRB assay; conditions: OVCAR-3, 48 h
[43] = tested on: Malme-3M; experiment: Growth inhibition of human MALME-3M cells after 48 hrs by SRB assay
[44] = tested on: CCRF-CEM; experiment: Growth inhibition of human CCRF-CEM cells after 48 hrs by SRB assay
[45] = tested on: BT-549; experiment: Growth inhibition of human BT549 cells after 48 hrs by SRB assay; conditions: BT-549, 48 h
[46] = tested on: SF-539; experiment: Growth inhibition of human SF539 cells after 48 hrs by SRB assay; conditions: SF-539, 48 h
[47] = tested on: M14; experiment: Growth inhibition of human M14 cells after 48 hrs by SRB assay; conditions: M14, 48 h
[48] = tested on: EKVX; experiment: Growth inhibition of human EKVX cells after 48 hrs by SRB assay
[49] = tested on: CAKI-1; experiment: Growth inhibition of human Caki1 cells after 48 hrs by SRB assay; conditions: CAKI-1, 48 h
[50] = tested on: MOLT-4; experiment: Growth inhibition of human MOLT4 cells after 48 hrs by SRB assay; conditions: MOLT-4, 48 h
[51] = tested on: HCT-15; experiment: Growth inhibition of human HCT15 cells after 48 hrs by SRB assay; conditions: HCT-15, 48 h
[52] = Growth inhibition of human Hs 578T cells after 48 hrs by SRB assay
[53] = tested on: DU-145; experiment: Growth inhibition of human DU145 cells after 48 hrs by SRB assay; conditions: DU-145, 48 h
[54] = tested on: SW-620; experiment: Growth inhibition of human SW620 cells after 48 hrs by SRB assay; conditions: SW-620, 48 h
[55] = tested on: NCI-H522; experiment: Growth inhibition of human NCI-H522 cells after 48 hrs by SRB assay; conditions: NCI-H522, 48 h
[56] = tested on: SK-OV-3; experiment: Growth inhibition of human SKOV3 cells after 48 hrs by SRB assay; conditions: SK-OV-3, 48 h
[57] = tested on: SNB-19; experiment: Growth inhibition of human SNB19 cells after 48 hrs by SRB assay; conditions: SNB-19, 48 h
[58] = tested on: SK-MEL-2; experiment: Growth inhibition of human SK-MEL-2 cells after 48 hrs by SRB assay; conditions: SK-MEL-2, 48 h
[59] = tested on: MDA-MB-231; experiment: Growth inhibition of human MDA-MB-231 cells after 48 hrs by SRB assay; conditions: MDA-MB-231, 48 h

SMILES: COc1ccc(NC(=O)n2nc(N)c3ccccc32)cc1OC
- GI50 [1]: 58.3 µM
- GI50 [2]: 18.1 µM
- GI50 [3]: 21.1 µM
- GI50 [4]: 37.6 µM
- GI50 [5]: 33 µM
- GI50 [6]: 52.3 µM
- GI50 [7]: 43.5 µM
- GI50 [8]: 61.7 µM
- GI50 [9]: 92.4 µM
- GI50 [10]: 30.3 µM
- GI50 [11]: 75.2 µM
- GI50 [12]: 49.6 µM
- GI50 [13]: 39.7 µM
- GI50 [14]: 73.6 µM
- GI50 [15]: 27.9 µM
- GI50 [16]: 29.3 µM
- GI50 [17]: 67.9 µM
- GI50 [18]: 83.1 µM
- GI50 [19]: 28.5 µM
- GI50 [20]: 49.3 µM
- GI50 [21]: 34.5 µM
- GI50 [22]: 41.2 µM
- GI50 [23]: > 100 µM
- GI50 [24]: > 100 µM
- GI50 [25]: 45.5 µM
- GI50 [26]: 83.5 µM
- GI50 [27]: 63.2 µM
- GI50 [28]: 48.2 µM
- GI50 [29]: 29.5 µM
- GI50 [30]: > 100 µM
- GI50 [31]: > 100 µM
- GI50 [32]: 24.6 µM
- GI50 [33]: > 100 µM
- GI50 [34]: 35.5 µM
- GI50 [35]: 37.6 µM
- GI50 [36]: 95.2 µM
- GI50 [37]: 30.6 µM
- GI50 [38]: 85.9 µM
- GI50 [39]: 27.9 µM
- GI50 [40]: 45.8 µM
- GI50 [41]: 61.1 µM
- GI50 [42]: 92 µM
- GI50 [43]: > 100 µM
- GI50 [44]: 36.7 µM
- GI50 [45]: 25.9 µM
- GI50 [46]: 95.9 µM
- GI50 [47]: 64.9 µM
- GI50 [48]: 54.1 µM
- GI50 [49]: > 100 µM
- GI50 [50]: 39.4 µM
- GI50 [51]: 44.1 µM
- GI50 [52]: 43.3 µM
- GI50 [53]: 73.1 µM
- GI50 [54]: > 100 µM
- GI50 [55]: 34.9 µM
- GI50 [56]: > 100 µM
- GI50 [57]: > 100 µM
- GI50 [58]: 37.2 µM
- GI50 [59]: 53.6 µM

SMILES: COc1ccc(NC(=O)Nc2n[nH]c3ccccc23)cc1
- GI50 [1]: > 100 µM
- GI50 [2]: > 100 µM
- GI50 [3]: > 100 µM
- GI50 [4]: > 100 µM
- GI50 [5]: 100 µM
- GI50 [6]: > 100 µM
- GI50 [7]: > 100 µM
- GI50 [8]: > 100 µM
- GI50 [9]: > 100 µM
- GI50 [10]: > 100 µM
- GI50 [11]: > 100 µM
- GI50 [12]: > 100 µM
- GI50 [13]: > 100 µM
- GI50 [14]: > 100 µM
- GI50 [15]: > 100 µM
- GI50 [16]: > 100 µM
- GI50 [17]: > 100 µM
- GI50 [18]: > 100 µM
- GI50 [19]: > 100 µM
- GI50 [20]: > 100 µM
- GI50 [21]: > 100 µM
- GI50 [22]: > 100 µM
- GI50 [23]: > 100 µM
- GI50 [24]: > 100 µM
- GI50 [25]: > 100 µM
- GI50 [26]: > 100 µM
- GI50 [27]: > 100 µM
- GI50 [28]: > 100 µM
- GI50 [29]: > 100 µM
- GI50 [30]: > 100 µM
- GI50 [31]: > 100 µM
- GI50 [32]: > 100 µM
- GI50 [33]: > 100 µM
- GI50 [34]: > 100 µM
- GI50 [35]: > 100 µM
- GI50 [36]: > 100 µM
- GI50 [37]: > 100 µM
- GI50 [38]: > 100 µM
- GI50 [39]: > 100 µM
- GI50 [40]: > 100 µM
- GI50 [41]: > 100 µM
- GI50 [42]: > 100 µM
- GI50 [43]: > 100 µM
- GI50 [44]: 59.6 µM
- GI50 [45]: > 100 µM
- GI50 [46]: > 100 µM
- GI50 [47]: > 100 µM
- GI50 [48]: > 100 µM
- GI50 [49]: > 100 µM
- GI50 [50]: > 100 µM
- GI50 [51]: > 100 µM
- GI50 [52]: > 100 µM
- GI50 [53]: > 100 µM
- GI50 [54]: > 100 µM
- GI50 [55]: > 100 µM
- GI50 [56]: > 100 µM
- GI50 [57]: > 100 µM
- GI50 [58]: > 100 µM
- GI50 [59]: > 100 µM
